The record followed here is patent publication EP1140830B1, “ARYLPIPERIDINE AND ARYL-1,2,5,6-TETRAHYDROPYRIDINE AMIDE DERIVATIVES HAVING 5HT1A RECEPTOR ACTIVITY” (Wyeth, priority 1998, dated 2000).

The target of experiment [1] is T1, human 5HT1A receptor (Homo sapiens, UniProt P08908).
T1 construct: expressed in transfected cells; host or cells: CHO cells
T1 sequence (P08908 1-422): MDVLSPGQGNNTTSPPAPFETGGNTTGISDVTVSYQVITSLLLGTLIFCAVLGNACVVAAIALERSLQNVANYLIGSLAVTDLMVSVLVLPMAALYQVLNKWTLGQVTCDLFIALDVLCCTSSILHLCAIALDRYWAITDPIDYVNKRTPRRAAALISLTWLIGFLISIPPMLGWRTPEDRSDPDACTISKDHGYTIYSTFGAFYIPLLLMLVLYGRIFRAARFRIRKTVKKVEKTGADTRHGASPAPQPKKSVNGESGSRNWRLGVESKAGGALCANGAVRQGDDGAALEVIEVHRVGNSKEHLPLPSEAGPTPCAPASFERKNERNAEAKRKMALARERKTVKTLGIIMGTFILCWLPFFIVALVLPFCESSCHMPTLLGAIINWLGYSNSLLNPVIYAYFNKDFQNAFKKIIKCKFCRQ
The experiment in a line: 5-HT1A Receptor Intrinsic Activity Assay (forskolin-stimulated cAMP in transfected CHO cells, RIA). The note with it: for Emax: Emax = 0 % means no agonist activity; for IC50: antagonist mode: reversal of agonist-induced activity, antagonist preincubated 20 minutes before agonist and forskolin. The format is cell-based. On the procedure:
5-HT1A Receptor Intrinsic Activity Assay
The intrinsic activity of compounds of the present invention was established by testing the claimed compounds ability to reverse the stimulation of cyclic adenosinemonophosphate (cAMP) in CHO cells stably transfected with the human 5-HT1A receptor.
Stably transfected CHO cells were grown in DMEM containing 10% heat inactivated FBS and non-essential amino acids. The cells arc plated at a density of ? x10^6 cells per well in a 24 well plate and incubated for 2 days in a CO2 incubator. On the second day, the media is replaced with 0.5 mL treatment buffer (DMEM + 25 mM HEPES, 5 mM theophylline, 10 µM pargyline) and incubated for 10 minutes at 37°C. Wells are treated with forskolin (1 µM final concentration) followed immediately by the test compound (0.1 and 1 µM for initial screen) and incubated for an additional 10 minutes at 37°C. The reaction is terminated by removal of the media and addition of 0.5 mL ice cold assay buffer (supplied in the RIA kit). Plates are stored at -20°C prior to assessment of cAMP formation by RIA. EC50 values are determined for the active test compounds. Compounds shown to have no agonist activities (Emax = 0 %) are further analyzed for their ability to reverse agonist-induced activity. In separate experiments, 6 concentrations of antagonist are preincubated for 20 minutes prior to the addition of agonist and forskolin. Cells are harvested as described above. The CAMP kit is supplied by Amersham and the RIA is performed as per kit instructions, and calculations of IC50 performed by GraphPad Prism.

The target of experiment [2] is T1, human 5HT1A receptor. The experiment in a line: 5-HT1A Receptor Binding Assay ([3H] 8-OH-DPAT displacement in transfected CHO cells). The procedure:
5-HT1A Receptor Binding Assay
Stably transfected CHO cells are grown in DMEM containing 10% heat inactivated FBS and non-essential amino acids. Cells are scraped off the plate, transferred to centrifuge tubes, and washed twice by centrifugation (2000 rpm for 10 min., 4"C) in buffer (50 mM Tris pH 7.5). The resulting pellets are aliquoted and placed at -80°C. On the day of assay, the cells are thawed on ice and resuspended in buffer. The binding assay is performed in a 96 well microtiter plate in a total volume of 250 µL. […] Following a 30 minute incubation at room temperature, the reaction is terminated by the addition of ice cold buffer and rapid filtration through a GF/B filter presoaked for 30 minutes in 0.5% PEI.

The mark [3] stands for this setting: agonist mode: reversal of forskolin (1 µM) stimulated cAMP, CHO cells.
Setting [4] is: displacement of [3H] 8-OH-DPAT (1.5 nM), CHO cells stably transfected with human 5HT1A receptor.

Molecules are shown by their SMILES. Read-outs that look alike come from different tables or passages of the source.

Regarding `COc1ccccc1C1=CCN(C[C@@H](Cc2ccccc2)NC(=O)C2CCCCC2)CC1` [Example 3, (R)-Cyclohexanecarboxylic acid{1-benzyl-2-[4-(2-methoxy-phenyl)-3,6-dihydro-2H-pyridin-1-yl]-ethyl}-amide], the maximal response (Emax) in experiment [1] (setting [3]) is 84%.

Consider `COc1ccccc1C1CCN(C[C@@H](Cc2ccccc2)NC(=O)C2CCCCC2)CC1` [Example 6, (R)-Cyclohexanecarboxylic acid {1-benzyl-2-[4-(2-methoxy-phenyl)-piperidin-1-yl]-ethyl}-amide], for which the inhibitory constant (Ki) in experiment [2] (setting [4]) is 0.23 nM. Moreover, in experiment [1] (setting [3]), the 50% effective concentration (EC50) is 16.9 nM and the Emax is 92%.

With `COc1ccccc1C1=CCN(C[C@@H](Cc2ccccc2)NC(=O)C2(C)CCCCC2)CC1` [Example 4, (R)-1-Methyl-cyclohexanecarboxylic acid{1-benzyl-2-[4-(2-methoxy-phenyl)-3,6-dihydro-2H-pyridin-1-yl]-ethyl}-amide], the maximal response (Emax) in experiment [1] (setting [3]) came to 84%.

Compound `COc1ccc(F)cc1C1=CCN(C[C@@H](Cc2ccccc2)N(C)C(=O)C2(C)CCCCC2)CC1` [Example 2, 1-Methyl-cyclohexanecarboxylic acid {(1R)-1-benzyl-2-[4-(5-fluoro-2-methoxy-phenyl)-1,2,5,6-tetrahydro-4H-pyridin-1-yl]-ethyl}-methyl-amide] registered a Ki in experiment [2] of 4.9 nM. Besides, in experiment [1] (setting [3]), the maximum response (Emax) turned out to be 0%.

Consider `COc1ccc(F)cc1C1CCN(C[C@@H](Cc2ccccc2)N(C)C(=O)C2(C)CCCCC2)CC1` [Example 1, 1-Methyl-cyclohexanecarboxylic acid {(1R)-1-benzyl-2-[4-(5-fluoro-2-methoxy-phenyl)-piperidine-1-yl]-ethyl}-methyl-amide], for which affinity in experiment [2] (setting [4]) was put at a Ki of 10.7 nM. The Emax in experiment [1] (setting [3]) turned out to be 0%. In addition, the IC50 in experiment [1] worked out at 11.1 nM.

`COc1ccccc1C1CCN(C[C@@H](Cc2ccccc2)NC(=O)C2(C)CCCCC2)CC1` [Example 5, (R)-1-Methyl-cyclohexanecarboxylic acid {1-benzyl-2-[4-(2-methoxy-phenyl)-piperidin-1-yl]-ethyl}-amide] had a Ki in experiment [2] (setting [4]) of 0.24 nM. The Emax in experiment [1] (setting [3]) came to 0%. The IC50 in experiment [1] is 0.29 nM.
